Measured values taken from patent US20260250320A1, “LIPIDATED PEPTIDE INHIBITORS OF INTERLEUKIN-23 RECEPTOR” (Janssen Pharmaceutica NV, priority 2023, published 2026).
*1 amine or outer side, *2 acyl side, *3 side chain or, on linkers, in order; H or OH if unused. Where a SMILES comes first, the peptide text is derived from it. Bridges are numbered along the chain shown (N, C = ends). Side-chain parts run from the residue outwards. [ ]: non-standard residue; d: D form. The star is where a group is joined. ξ: configuration not given here. X27 = C[N+](C)(CCNC(=O)COCCOCCNC(=O)COCCOCCNC(=O)CC[C@H](NC(=O)CCCCCCCCCCCCCCCCCCC(=O)O)C(=O)O)CC(=O)*; Me3N+CH2CH2(OCH2CH2)4CO = C[N+](C)(C)CCOCCOCCOCCOCCC(=O)*; Me3N+(CH2)2O(CH2)2O(CH2)2CO = C[N+](C)(C)CCOCCOCCC(=O)*; CH2CH2OCH2CH2OCH2CH2NMe3+ = C[N+](C)(C)CCOCCOCC*; Trp(7-Me) = Cc1cccc2c(C[C@H](N)C(=O)O)c[nH]c12; C20 diacid = O=C(O)CCCCCCCCCCCCCCCCCCC(=O)*; C18 diacid = O=C(O)CCCCCCCCCCCCCCCCC(=O)*; X6 = CN(CC[C@H](N[*:1])C(=O)[*:2])[*:3]; γGlu = O=C(O)[C@H](CCC(=O)[*:2])N[*:1]; 2Nal = N[C@@H](Cc1ccc2ccccc2c1)C(=O)O; AEF = NCCOc1ccc(C[C@H](N)C(=O)O)cc1; ξAEF = NCCOc1ccc(CC(N)C(=O)O)cc1; 3Pal = N[C@@H](Cc1cccnc1)C(=O)O; Lys(Me) = CNCCCC[C@H](N)C(=O)O; NMeK = CN[C@@H](CCCCN)C(=O)O; Pen = CC(C)(S)[C@H](N)C(=O)O; Thp = NC1(C(=O)O)CCOCC1; Abu = CC[C@H](N)C(=O)O; X1 = C[N+](C)(C)CCCCC*; AEEA = NCCOCCOCC(=O)O; Sar = CNCC(=O)O

Key:
[1] = test system: IL-23-stimulated phosphorylated STAT3 in peripheral blood mononuclear cells (PBMCs); assay: PBMC pSTAT3 Assay; type: cell-based; details: PBMCs from healthy donors; 30 min preincubation with peptide; IL-23 5 ng/mL for 30 min; phospho-STAT3 by MSD
Method in brief: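 Healthy-donor PBMCs expanded 4 days on anti-CD3 with 100 ng/mL IL-1β, starved ~4 h in RPMI-0.1% BSA, preincubated 30 min with peptide, then stimulated 30 min at 37 °C with 5 ng/mL IL-23. Lysate pSTAT3 measured by MSD phospho-STAT panel; IC50 derived.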

[2] = biological target: T1, IL-23R (Homo sapiens, UniProt Q5VWK5); assay: IL23R Reporter Assay; type: cell-based; details: HEK293 cells containing IL-23R, IL-12Rβ1 and STAT-inducible firefly luciferase reporter; 10 ng/mL IL-23 (EC90); 5 h
T1 construct: HEK293 cells containing IL-23R, IL-12Rβ1 and a firefly luciferase reporter gene driven by a STAT-inducible promoter (Promega); host or cells: HEK293
T1 sequence (Q5VWK5 24-629): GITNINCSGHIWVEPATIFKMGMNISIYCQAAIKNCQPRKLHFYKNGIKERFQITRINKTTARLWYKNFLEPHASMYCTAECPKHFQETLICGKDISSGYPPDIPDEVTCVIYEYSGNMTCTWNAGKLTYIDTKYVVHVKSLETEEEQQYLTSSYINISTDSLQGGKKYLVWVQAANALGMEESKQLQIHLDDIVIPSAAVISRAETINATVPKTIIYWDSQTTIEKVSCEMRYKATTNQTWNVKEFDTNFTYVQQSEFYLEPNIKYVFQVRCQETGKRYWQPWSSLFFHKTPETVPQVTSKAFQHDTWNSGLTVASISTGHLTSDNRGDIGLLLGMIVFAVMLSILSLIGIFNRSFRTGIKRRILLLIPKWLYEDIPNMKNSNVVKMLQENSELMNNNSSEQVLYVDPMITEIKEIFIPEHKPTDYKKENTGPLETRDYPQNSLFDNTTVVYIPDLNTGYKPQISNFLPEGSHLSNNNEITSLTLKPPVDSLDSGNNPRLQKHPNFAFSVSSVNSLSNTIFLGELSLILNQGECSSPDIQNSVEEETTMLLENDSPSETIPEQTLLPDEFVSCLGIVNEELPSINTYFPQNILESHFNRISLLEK
Method in brief: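 HEK293 cells carrying IL-23R, IL-12Rβ1 and a STAT-driven firefly luciferase reporter (4000 cells/well) received compound, then 10 ng/mL IL-23 solution (EC90), and were incubated for 5 h at 37° C. BioGlo luminescence was normalised to IL-23 alone (0%) and 30 μM control inhibitor (100%). IC50 came from a 4-parameter Hill fit.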

SMILES	IC50 [1] [nM]	IC50 [2] [nM]
CC(=O)NCCCC[C@@H]1NC(=O)[C@H](Cc2c[nH]c3c(C)cccc23)NC(=O)[C@H]([C@@H](C)O)NC(=O)[C@H](CC(N)=O)NC(=O)[C@@H](NC(=O)O)CCCC[C@@H](C(=O)N[C@@H](Cc2ccc(OCCN)cc2)C(=O)N[C@@H](Cc2ccc3ccccc3c2)C(=O)NC2(C(=O)N[C@@H](CCC(=O)O)C(=O)N[C@@H](CC(N)=O)C(=O)N[C@@H](Cc3cccnc3)C(=O)N(C)CC(=O)C[C@@H](CCCCNC(=O)COCCOCCNC(=O)COCCOCCNC(=O)CC[C@H](NC(=O)CCCCCCCCCCCCCCCC(=O)O)C(=O)O)C(=O)NCCOCCOCC[N+](C)(C)C)CCOCC2)NC1=O [compound 150, MeCO-Pen(3)-N-T-7MeW-K(Ac)-Pen(3)-AEF-2Nal-THP-E-N-3Pya-Sar-K(PEG2PEG2gEC18OH)-CONH(PEG3a)]	≥ 5	≥ 500
CC(=O)N(C)CCCC[C@@H]1NC(=O)[C@H](Cc2c[nH]c3c(C)cccc23)NC(=O)[C@H]([C@@H](C)O)NC(=O)[C@H](CC(=O)N(C)C)NC(=O)[C@@H](NC(=O)CCOCCOCC[N+](C)(C)C)C(C)(C)SSC(C)(C)[C@@H](C(=O)N[C@@H](Cc2ccc(OCCNC(=O)C[N+](C)(C)CCNC(=O)COCCOCCNC(=O)COCCOCCNC(=O)CC[C@H](NC(=O)CCCCCCCCCCCCCCCCCCC(=O)O)C(=O)O)cc2)C(=O)N[C@@H](Cc2ccc3ccccc3c2)C(=O)NC2(C(=O)N[C@@H](CCCCN(C)C(C)=O)C(=O)N[C@@H](CC(N)=O)C(=O)N[C@@H](Cc3cccnc3)C(=O)N(C)CC(=O)N(C)C)CCOCC2)NC1=O [compound 151, cPEG3aCO-Pen(3)-N(N(Me)2)-T-7MeW-K(NMeAc)-Pen(3)-AEF(SP6PEG2PEG2gEC20OH)-2Nal-THP-K(NMeAc)-N-3Pya-Sar-CON(Me)2] ({Me3N+(CH2)2O(CH2)2O(CH2)2CO}-[Pen]D(NMe2)T[Trp(7-Me)][Lys(Me)](Ac)[Pen][AEF](X27)[2Nal][Thp][Lys(Me)](Ac)N[3Pal][Sar]-NMe2; disulfide 1-6)	< 0.5	< 50
CC[C@@H]1NC(=O)[C@H](Cc2c[nH]c3c(C)cccc23)NC(=O)[C@H]([C@@H](C)O)NC(=O)[C@H](CC(=O)N(C)C)NC(=O)[C@@H](NC(=O)CCOCCOCCOCCOCC[N+](C)(C)C)C(C)(C)SSC(C)(C)[C@@H](C(=O)NC(Cc2ccc(OCCN)cc2)C(=O)N[C@@H](Cc2ccc3ccccc3c2)C(=O)NC2(C(=O)N[C@@H](CCC(=O)O)C(=O)N[C@@H](CC(N)=O)C(=O)N[C@@H](Cc3cccnc3)C(=O)N(C)[C@@H](CCCCNC(=O)COCCOCCNC(=O)COCCOCCNC(=O)CC[C@H](NC(=O)CCCCCCCCCCCCCCCCCCC(=O)O)C(=O)O)C(N)=O)CCOCC2)NC1=O (stereo partly shown) [compound 152, cPEG5aCO-Pen(3)-N(N(Me)2)-T-7MeW-Dab(NMecPEG5A)-Pen(3)-AEF-2Nal-THP-E-N-3Pya-NMeK(PEG2PEG2gEC20OH)-CONH2] ({Me3N+CH2CH2(OCH2CH2)4CO}-[Pen]D(NMe2)T[Trp(7-Me)][Abu][Pen][ξAEF][2Nal][Thp]EN[3Pal][NMeK]([AEEA-AEEA-γGlu-C20 diacid])-NH2; disulfide 1-6)	< 0.5	50 to 500
Cc1cccc2c(C[C@@H]3NC(=O)[C@H]([C@@H](C)O)NC(=O)[C@H](CC(=O)N(C)C)NC(=O)[C@@H](NC(=O)CCOCCOCCOCCOCC[N+](C)(C)C)C(C)(C)SSC(C)(C)[C@@H](C(=O)NC(Cc4ccc(OCCN)cc4)C(=O)N[C@@H](Cc4ccc5ccccc5c4)C(=O)NC4(C(=O)N[C@@H](CCC(=O)O)C(=O)N[C@@H](CC(N)=O)C(=O)N[C@@H](Cc5cccnc5)C(=O)N(C)[C@@H](CCCCNC(=O)COCCOCCNC(=O)COCCOCCNC(=O)CC[C@H](NC(=O)CCCCCCCCCCCCCCCCC(=O)O)C(=O)O)C(N)=O)CCOCC4)NC(=O)[C@H](CCN(C)C(=O)CCOCCOCCOCCOCC[N+](C)(C)C)NC3=O)c[nH]c12 (stereo partly shown) [compound 153, cPEG5aCO-Pen(3)-N(N(Me)2)-T-7MeW-Dab(NMecPEG5a)-Pen(3)-AEF-2Nal-THP-E-N-3Pya-NMeK(PEG2PEG2gEC18OH)-CONH2] ({Me3N+CH2CH2(OCH2CH2)4CO}-[Pen]D(NMe2)T[Trp(7-Me)][X6](Me3N+CH2CH2(OCH2CH2)4CO)[Pen][ξAEF][2Nal][Thp]EN[3Pal][NMeK]([AEEA-AEEA-γGlu-C18 diacid])-NH2; disulfide 1-6)	< 0.5	50 to 500
CC(=O)N(C)CCCC[C@H](CC(=O)C1(NC(=O)[C@H](Cc2ccc3ccccc3c2)NC(=O)[C@H](Cc2ccc(OCCNC(=O)C[N+](C)(C)CCNC(=O)COCCOCCNC(=O)COCCOCCNC(=O)CC[C@H](NC(=O)CCCCCCCCCCCCCCCCC(=O)O)C(=O)O)cc2)NC(=O)[C@@H]2CCCCC(C)[C@H](NC(=O)CCOCCOCC[N+](C)(C)C)C(=O)N[C@@H](CC(=O)N(C)C)N[C@@H]([C@@H](C)O)C(=O)N[C@@H](Cc3c[nH]c4c(C)cccc34)C(=O)N[C@@H](CCCCN(C)C(C)=O)C(=O)N2)CCOCC1)C(=O)C[C@@H](CC(N)=O)C(=O)N[C@@H](Cc1cccnc1)C(=O)N(C)CC(=O)N(C)C (stereo partly drawn) [compound 154, cPEG3aCO-Pen(3)-N(N(Me)2)-T-7MeW-K(NMeAc)-Pen(3)-AEF(SP6PEG2PEG2gEC18OH)-2Nal-THP-K(NMeAc)-N-3Pya-Sar-CON(Me)2]	< 0.5	< 50
CC(=O)N(C)CCCC[C@@H]1NC(=O)[C@H](Cc2c[nH]c3c(C)cccc23)NC(=O)[C@H]([C@@H](C)O)NC(=O)[C@H](CC(=O)N(C)C)NC(=O)[C@@H](NC(=O)CCOCCOCC[N+](C)(C)C)C(C)(C)SSC(C)(C)[C@@H](C(=O)N[C@@H](Cc2ccc(OCCOCCOCC[N+](C)(C)C)cc2)C(=O)N[C@@H](Cc2ccc3ccccc3c2)C(=O)NC2(C(=O)N[C@@H](CCCCNC(=O)COCCOCCNC(=O)COCCOCCNC(=O)CC[C@H](NC(=O)CCCCCCCCCCCCCCCCC(=O)O)C(=O)O)C(=O)N[C@@H](CC(N)=O)C(=O)N[C@@H](Cc3cccnc3)C(=O)N(C)CC(=O)N(C)C)CCOCC2)NC1=O [compound 156, cPEG3aCO-Pen(3)-N(N(Me)2)-T-7MeW-K(NMeAc)-Pen(3)-APEG3F-2Nal-THP-K(PEG2PEG2gEC18OH)-N-3Pya-Sar-CON(Me)2] ({Me3N+(CH2)2O(CH2)2O(CH2)2CO}-[Pen]D(NMe2)T[Trp(7-Me)][Lys(Me)](Ac)[Pen]Y(CH2CH2OCH2CH2OCH2CH2NMe3+)[2Nal][Thp]K([AEEA-AEEA-γGlu-C18 diacid])N[3Pal][Sar]-NMe2; disulfide 1-6)	< 0.5	50 to 500
CC(=O)N(C)CCCC[C@H](NC(=O)CNC(=O)[C@H](Cc1ccc2ccccc2c1)NC(=O)[C@H](Cc1ccc(OCCCCC[N+](C)(C)C)cc1)NC(=O)[C@H]1NC(=O)[C@H](CCCCNC(=O)COCCOCCNC(=O)COCCOCCNC(=O)CC[C@H](NC(=O)CCCCCCCCCCCCCCCCC(=O)O)C(=O)O)NC(=O)[C@H](Cc2c[nH]c3c(C)cccc23)NC(=O)[C@H]([C@@H](C)O)NC(=O)[C@H](CC(=O)N(C)C)NC(=O)[C@@H](NC(=O)CCOCCOCC[N+](C)(C)C)C(C)(C)SSC1(C)C)C(=O)N[C@@H](CC(N)=O)C(=O)N[C@@H](Cc1cccnc1)C(=O)N(C)CC(=O)N(C)C [compound 157, cPEG3aCO-Pen(3)-N(N(Me)2)-T-7MeW-K(PEG2PEG2gEC18OH)-Pen(3)-APEG3F-2Nal-THP-K(NMeAc)-N-3Pya-Sar-CON(Me)2] ({Me3N+(CH2)2O(CH2)2O(CH2)2CO}-[Pen]D(NMe2)T[Trp(7-Me)]K([AEEA-AEEA-γGlu-C18 diacid])[Pen]Y(X1)[2Nal]G[Lys(Me)](Ac)N[3Pal][Sar]-NMe2; disulfide 1-6)	0.5 to 5	50 to 500
C=C(O)CCCCCCCCCCCCCCCCC(=O)N[C@@H](CCC(=O)NCCOCCOCC(=O)NCCCCCOCC(=O)NCCCC[C@@H]1NC(=O)[C@@H](NC(=O)CCOCCOCC[N+](C)(C)C)CCCC[C@@H](C(=O)N[C@@H](Cc2ccc(OCCOCCOCC[N+](C)(C)C)cc2)C(=O)N[C@@H](Cc2ccc3ccccc3c2)C(=O)NC2(C(=O)N[C@@H](CCCCN(C)C(C)=O)C(=O)N[C@@H](CC(N)=O)C(=O)N[C@@H](Cc3cccnc3)C(=O)N(C)CC(=O)N(C)C)CCCCC2)NC(=O)[C@H](CCCCN(C)C(C)=O)NC(=O)[C@H](Cc2c[nH]c3c(C)cccc23)NC(=O)[C@H]([C@@H](C)O)NC1=O)C(=O)O [compound 158, cPEG3aCO-Pen(3)-K(PEG2PEG2gEC18OH)-T-7MeW-K(NMeAc)-Pen(3)-APEG3F-2Nal-THP-K(NMeAc)-N-3Pya-Sar-CON(Me)2]	0.5 to 5	50 to 500
